The values below are quoted from earlier work in patent US10703773B2, “Glycosyl hesperetin and process for producing the same and uses thereof” (Hayashibara Co. Ltd., priority 2014, dated 2020).

For this data set the following is noted: in water at ambient temperature.

For `COc1ccc([C@@H]2CC(=O)c3c(O)cc(O[C@@H]4O[C@H](CO[C@@H]5O[C@@H](C)[C@H](O)[C@@H](O)[C@H]5O)[C@@H](O)[C@H](O)[C@H]4O)cc3O2)cc1O` [hesperidin], the Water solubility result is “about 0.002 w/v %”.
